{
  "source": "patent US20030068615A1",
  "about": "“Polypeptides that bind HIV gp120 and related nucleic acids, antibodies, compositions, and methods of use” (priority 1999, published 2003)",
  "target": "HIV-1LAI envelope gp120 (Human immunodeficiency virus type 1 group M subtype B, UniProt P03377)",
  "type": "binding",
  "settings": "for Relative % of Control: CXCR4 (1-18) alanine variants, mean of two syntheses and binding experiments ± average deviation, wild-type = 100%; for Counts per 20′ Average-background: CCR5 18-mer scan, radiolabeled HIV-1LAI gp120; for number of radioactive decays (counts) counted: human CD4 21-mer scan, empty control 2075",
  "key": {"[1]": {"settings": "CXCR4 18-mer scan, background subtracted, empty control 0"}, "[2]": {"settings": "CXCR4 18-mer scan, empty control 412"}, "[3]": {"settings": "STRL33 18-mer scan, background subtracted, first of two count columns"}, "[4]": {"settings": "STRL33 18-mer scan, background subtracted, second of two count columns"}, "[5]": {"settings": "Panel D, 9-mers and 12-mers of CD4, empty control […]"}, "[6]": {"settings": "Panel B, 15-mers and 18-mers of CD4, empty control 575"}, "[7]": {"settings": "Panel E, 9-mers and 12-mers of CD4, empty control 571"}, "[8]": {"settings": "Panel C, 15-mers and 18-mers of CD4, empty control 556"}},
  "note": "Read-outs that look alike come from different tables or passages of the source.",
  "data": [
    {"sequence": "MEGISIYTSDNYTEEAGS", "values": [
      {"measurement": "Relative % of Control", "value": "88 ± 4", "unit": "%"}
    ]},
    {"sequence": "MEGISIYTSDNYTEEMAS", "values": [
      {"measurement": "Relative % of Control", "value": "68 ± 8", "unit": "%"}
    ]},
    {"sequence": "MEGISIYTSDNYTEEMGA", "values": [
      {"measurement": "Relative % of Control", "value": "79 ± 1", "unit": "%"}
    ]},
    {"sequence": "MEGISIYTSDNYTEEMGS", "values": [
      {"measurement": "radioactive counts recorded in twenty minutes", "setting": "[1]", "value": 2591, "unit": "counts"},
      {"measurement": "radioactive counts recorded in twenty minutes", "setting": "[2]", "value": 3003, "unit": "counts"},
      {"measurement": "Relative % of Control", "value": 100, "unit": "%"}
    ]},
    {"sequence": "MIVYFLFWAPYNIVLLLN [CCR5 segment 241-]", "values": [
      {"measurement": "Counts per 20′ Average-background", "setting": "background subtracted", "value": 214, "unit": "counts per 20′"}
    ]},
    {"sequence": "MLILTCITVDRFIVVVKA", "values": [
      {"measurement": "radioactive counts recorded in twenty minutes", "setting": "[3]", "value": 298.5, "unit": "counts"},
      {"measurement": "radioactive counts recorded in twenty minutes", "setting": "[4]", "value": 228.5, "unit": "counts"}
    ]},
    {"sequence": "MLVILILINCKRLKSMTD [CCR5 segment 49-66]", "values": [
      {"measurement": "Counts per 20′ Average-background", "setting": "background subtracted", "value": 84, "unit": "counts per 20′"}
    ]},
    {"sequence": "MNRGVPFRRLLLVLQLALLPA [human CD4 1-21]", "values": [
      {"measurement": "number of radioactive decays (counts) counted", "value": 3587, "unit": "counts"}
    ]},
    {"sequence": "MPFNLMKFIRSTHWEYYA [STRL33 segment 245-262]", "values": [
      {"measurement": "radioactive counts recorded in twenty minutes", "setting": "[3]", "value": 2171.5, "unit": "counts"},
      {"measurement": "radioactive counts recorded in twenty minutes", "setting": "[4]", "value": 2182.5, "unit": "counts"}
    ]},
    {"sequence": "MTWGKVTSLLIWVISLLV", "values": [
      {"measurement": "radioactive counts recorded in twenty minutes", "setting": "[3]", "value": "−0.5", "unit": "counts"},
      {"measurement": "radioactive counts recorded in twenty minutes", "setting": "[4]", "value": "−26.5", "unit": "counts"}
    ]},
    {"sequence": "MVGLILPGIVILSCYCII [CXCR4 segment 205-222]", "values": [
      {"measurement": "radioactive counts recorded in twenty minutes", "setting": "[1]", "value": 167, "unit": "counts"},
      {"measurement": "radioactive counts recorded in twenty minutes", "setting": "[2]", "value": 579, "unit": "counts"}
    ]},
    {"sequence": "MYLVVFVCGLVGNSLVLV [STRL33 segment 37-54]", "values": [
      {"measurement": "radioactive counts recorded in twenty minutes", "setting": "[3]", "value": 168.5, "unit": "counts"},
      {"measurement": "radioactive counts recorded in twenty minutes", "setting": "[4]", "value": 235.5, "unit": "counts"}
    ]},
    {"sequence": "NANFNKIFLPTIYSIIFL [CXCR4 segment 33-50]", "values": [
      {"measurement": "radioactive counts recorded in twenty minutes", "setting": "[1]", "value": 173, "unit": "counts"},
      {"measurement": "radioactive counts recorded in twenty minutes", "setting": "[2]", "value": 585, "unit": "counts"}
    ]},
    {"sequence": "NCKRLKSMTDIYLLNLAI [CCR5 segment 57-74]", "values": [
      {"measurement": "Counts per 20′ Average-background", "setting": "background subtracted", "value": 25, "unit": "counts per 20′"}
    ]},
    {"sequence": "NDSSQEEHQAFLQFS", "values": [
      {"measurement": "Binding Results For Window Length (counts bound-background), 9", "setting": "STRL33 amino terminus, 9-mer starting at the first residue of the printed sequence, background subtracted", "value": 180, "unit": "counts"},
      {"measurement": "Binding Results For Window Length (counts bound-background), 12", "setting": "STRL33 amino terminus, 12-mer starting at the first residue of the printed sequence, background subtracted", "value": 497, "unit": "counts"},
      {"measurement": "Binding Results For Window Length (counts bound-background), 15", "setting": "STRL33 amino terminus, 15-mer starting at the first residue of the printed sequence, background subtracted", "value": 6160, "unit": "counts"}
    ]},
    {"sequence": "NFPLIIKNL", "values": [
      {"measurement": "COUNTS of radiolabeled gp120 retained", "setting": "[5]", "value": 561, "unit": "counts"}
    ]},
    {"sequence": "NFPLIIKNLKIE", "values": [
      {"measurement": "COUNTS of radiolabeled gp120 retained", "setting": "[5]", "value": 647, "unit": "counts"}
    ]},
    {"sequence": "NFPLIIKNLKIEDSD", "values": [
      {"measurement": "COUNTS of radiolabeled gp120 retained", "setting": "[6]", "value": 654, "unit": "counts"}
    ]},
    {"sequence": "NFPLIIKNLKIEDSDTYI", "values": [
      {"measurement": "COUNTS of radiolabeled gp120 retained", "setting": "[6]", "value": 627, "unit": "counts"}
    ]},
    {"sequence": "NKEAKVSKREKAVWVLNPEAG", "values": [
      {"measurement": "number of radioactive decays (counts) counted", "value": 1735, "unit": "counts"}
    ]},
    {"sequence": "NKIFLPTIYSIIFLTGIV [CXCR4 segment 37-54]", "values": [
      {"measurement": "radioactive counts recorded in twenty minutes", "setting": "[1]", "value": 138, "unit": "counts"},
      {"measurement": "radioactive counts recorded in twenty minutes", "setting": "[2]", "value": 550, "unit": "counts"}
    ]},
    {"sequence": "NLKIEDSDT", "values": [
      {"measurement": "COUNTS of radiolabeled gp120 retained", "setting": "[5]", "value": 512, "unit": "counts"}
    ]},
    {"sequence": "NLKIEDSDTYIC", "values": [
      {"measurement": "COUNTS of radiolabeled gp120 retained", "setting": "[5]", "value": 639, "unit": "counts"}
    ]},
    {"sequence": "NLKIEDSDTYICEVE", "values": [
      {"measurement": "COUNTS of radiolabeled gp120 retained", "setting": "[6]", "value": 1160, "unit": "counts"}
    ]},
    {"sequence": "NLTLALEAKTGKLHQEVNLVV [human CD4 296-316]", "values": [
      {"measurement": "number of radioactive decays (counts) counted", "value": 1676, "unit": "counts"}
    ]},
    {"sequence": "NPIIYAFVGEKFRNYLLV [CCR5 segment 293-]", "values": [
      {"measurement": "Counts per 20′ Average-background", "setting": "background subtracted", "value": 162, "unit": "counts per 20′"}
    ]},
    {"sequence": "NQKKVEFKI", "values": [
      {"measurement": "COUNTS of radiolabeled gp120 retained", "setting": "[7]", "value": 597, "unit": "counts"}
    ]},
    {"sequence": "NQKKVEFKIDIV", "values": [
      {"measurement": "COUNTS of radiolabeled gp120 retained", "setting": "[7]", "value": 532, "unit": "counts"}
    ]},
    {"sequence": "NQKKVEFKIDIVVLA", "values": [
      {"measurement": "COUNTS of radiolabeled gp120 retained", "setting": "[8]", "value": 860, "unit": "counts"}
    ]},
    {"sequence": "NQKKVEFKIDIVVLAFQK", "values": [
      {"measurement": "COUNTS of radiolabeled gp120 retained", "setting": "[8]", "value": 889, "unit": "counts"}
    ]},
    {"sequence": "NRLDQAMQVTETLGMTHC [CCR5 segment 273-]", "values": [
      {"measurement": "Counts per 20′ Average-background", "setting": "background subtracted", "value": 10, "unit": "counts per 20′"}
    ]},
    {"sequence": "NSDTHLLQG", "values": [
      {"measurement": "COUNTS of radiolabeled gp120 retained", "setting": "[5]", "value": 561, "unit": "counts"}
    ]},
    {"sequence": "NSDTHLLQGQSL", "values": [
      {"measurement": "COUNTS of radiolabeled gp120 retained", "setting": "[5]", "value": 585, "unit": "counts"}
    ]},
    {"sequence": "NSDTHLLQGQSLTLT", "values": [
      {"measurement": "COUNTS of radiolabeled gp120 retained", "setting": "[6]", "value": 631, "unit": "counts"}
    ]},
    {"sequence": "NSDTHLLQGQSLTLTLES", "values": [
      {"measurement": "COUNTS of radiolabeled gp120 retained", "setting": "[6]", "value": 1726, "unit": "counts"}
    ]},
    {"sequence": "NSIYLVISIFYHKLQSLT [STRL33 segment 49-66]", "values": [
      {"measurement": "radioactive counts recorded in twenty minutes", "setting": "[3]", "value": 1255.5, "unit": "counts"},
      {"measurement": "radioactive counts recorded in twenty minutes", "setting": "[4]", "value": 1378.5, "unit": "counts"}
    ]},
    {"sequence": "NWYFGNFLCKAVHVIYTV", "values": [
      {"measurement": "radioactive counts recorded in twenty minutes", "setting": "[1]", "value": 96, "unit": "counts"},
      {"measurement": "radioactive counts recorded in twenty minutes", "setting": "[2]", "value": 508, "unit": "counts"}
    ]},
    {"sequence": "NYYTSEPCQKINVKQIAA [CCR5 segment 13-30]", "values": [
      {"measurement": "Counts per 20′ Average-background", "setting": "background subtracted", "value": 6, "unit": "counts per 20′"}
    ]},
    {"sequence": "PFRELLLVLQLALLPAATQGK [human CD4, printed 16-26]", "values": [
      {"measurement": "number of radioactive decays (counts) counted", "value": 4356, "unit": "counts"}
    ]},
    {"sequence": "PFWAYAGIHEWVFGQVMC", "values": [
      {"measurement": "radioactive counts recorded in twenty minutes", "setting": "[3]", "value": 7262.5, "unit": "counts"},
      {"measurement": "radioactive counts recorded in twenty minutes", "setting": "[4]", "value": 7537.5, "unit": "counts"}
    ]},
    {"sequence": "PKLMLSLKLENKEAKVSKREK [human CD4 336-356]", "values": [
      {"measurement": "number of radioactive decays (counts) counted", "value": 1656, "unit": "counts"}
    ]},
    {"sequence": "PLAFTVEKL", "values": [
      {"measurement": "COUNTS of radiolabeled gp120 retained", "setting": "[7]", "value": 597, "unit": "counts"}
    ]},
    {"sequence": "PLAFTVEKLTGS", "values": [
      {"measurement": "COUNTS of radiolabeled gp120 retained", "setting": "[7]", "value": 528, "unit": "counts"}
    ]},
    {"sequence": "PLAFTVEKLTGSGEL", "values": [
      {"measurement": "COUNTS of radiolabeled gp120 retained", "setting": "[8]", "value": 612, "unit": "counts"}
    ]},
    {"sequence": "PLAFTVEKLTGSGELWWQ", "values": [
      {"measurement": "COUNTS of radiolabeled gp120 retained", "setting": "[8]", "value": 650, "unit": "counts"}
    ]},
    {"sequence": "PLAFTVEKLTGSGELWWQAER", "values": [
      {"measurement": "COUNTS of radiolabeled gp120 retained", "setting": "Panel A, 21-mers of CD4, empty control 515 and 617", "value": 2647, "unit": "counts"}
    ]}
  ]
}
